Experimental data published in ChEMBL document CHEMBL4190175 (Medchemcomm, 2016).
In brackets after ≈: the same amount, converted by molar mass.

Legend:
[1] = biological target: Transient receptor potential cation channel subfamily V member 1 (Homo sapiens, UniProt Q8NER1); assay: Inhibition of human TRPV1
[2] = Lipophilicity, log D of the compound; type: physicochemical; conditions: octanol/water
[3] = Inhibition of sodium channel site 2 (unknown origin); parameters: species or system Homo sapiens
[4] = Drug uptake in Sprague-Dawley rat skin dermal layer at 0.68 mg applied topically measured after 24 hrs; type: ADME, tissue-based, Dermis; conditions: topical or ocular, read-out: Drug uptake
[5] = biological target: T1, Transient receptor potential cation channel subfamily A member 1 (Homo sapiens, UniProt O75762); assay: Antagonist activity at human TRPA1 by electrophysiology assay
T1 sequence (O75762 whole entry, the tested form may be a part): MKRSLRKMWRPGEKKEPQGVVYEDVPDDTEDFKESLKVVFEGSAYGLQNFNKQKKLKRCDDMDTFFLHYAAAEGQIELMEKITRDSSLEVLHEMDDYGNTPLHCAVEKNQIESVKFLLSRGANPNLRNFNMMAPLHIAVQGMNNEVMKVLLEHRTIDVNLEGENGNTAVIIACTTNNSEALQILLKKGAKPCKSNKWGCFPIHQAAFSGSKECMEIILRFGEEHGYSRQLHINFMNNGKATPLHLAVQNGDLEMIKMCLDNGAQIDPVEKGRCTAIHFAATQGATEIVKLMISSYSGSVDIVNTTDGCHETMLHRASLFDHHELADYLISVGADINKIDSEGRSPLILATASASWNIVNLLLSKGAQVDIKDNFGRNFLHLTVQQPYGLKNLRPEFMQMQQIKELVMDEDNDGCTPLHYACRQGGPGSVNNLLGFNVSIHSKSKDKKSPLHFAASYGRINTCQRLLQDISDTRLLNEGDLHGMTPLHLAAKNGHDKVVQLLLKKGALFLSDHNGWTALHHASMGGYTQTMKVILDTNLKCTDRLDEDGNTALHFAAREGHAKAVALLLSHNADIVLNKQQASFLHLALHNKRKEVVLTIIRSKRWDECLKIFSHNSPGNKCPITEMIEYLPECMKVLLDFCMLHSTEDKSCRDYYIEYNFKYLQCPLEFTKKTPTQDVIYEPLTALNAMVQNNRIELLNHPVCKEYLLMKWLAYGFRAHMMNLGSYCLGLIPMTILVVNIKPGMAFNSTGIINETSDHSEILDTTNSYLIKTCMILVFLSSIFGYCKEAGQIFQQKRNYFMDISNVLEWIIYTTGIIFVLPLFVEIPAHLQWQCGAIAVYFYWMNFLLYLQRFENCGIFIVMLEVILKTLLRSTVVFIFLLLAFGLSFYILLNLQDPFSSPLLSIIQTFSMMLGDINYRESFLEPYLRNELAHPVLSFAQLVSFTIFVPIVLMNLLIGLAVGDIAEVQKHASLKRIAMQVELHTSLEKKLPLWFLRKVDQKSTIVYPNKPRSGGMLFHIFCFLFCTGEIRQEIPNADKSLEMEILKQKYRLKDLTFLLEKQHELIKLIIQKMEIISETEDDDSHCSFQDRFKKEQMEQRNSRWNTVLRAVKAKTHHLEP

[6] = biological target: T1, Transient receptor potential cation channel subfamily A member 1; assay: Antagonist activity at human TRPA1 oS5 chimera containing (870 to 896 residues) expressed in 293-T-REx cells at holding potential of 15 mV measured after 1 min by PatchXpress electrophysiology assay; type: cell-based
Cytochrome P450 2C8 = biological target: T2, Cytochrome P450 2C8 (Homo sapiens, UniProt P10632); assay: Inhibition of CYP2C8 (unknown origin); type: ADME
T2 sequence (P10632 whole entry): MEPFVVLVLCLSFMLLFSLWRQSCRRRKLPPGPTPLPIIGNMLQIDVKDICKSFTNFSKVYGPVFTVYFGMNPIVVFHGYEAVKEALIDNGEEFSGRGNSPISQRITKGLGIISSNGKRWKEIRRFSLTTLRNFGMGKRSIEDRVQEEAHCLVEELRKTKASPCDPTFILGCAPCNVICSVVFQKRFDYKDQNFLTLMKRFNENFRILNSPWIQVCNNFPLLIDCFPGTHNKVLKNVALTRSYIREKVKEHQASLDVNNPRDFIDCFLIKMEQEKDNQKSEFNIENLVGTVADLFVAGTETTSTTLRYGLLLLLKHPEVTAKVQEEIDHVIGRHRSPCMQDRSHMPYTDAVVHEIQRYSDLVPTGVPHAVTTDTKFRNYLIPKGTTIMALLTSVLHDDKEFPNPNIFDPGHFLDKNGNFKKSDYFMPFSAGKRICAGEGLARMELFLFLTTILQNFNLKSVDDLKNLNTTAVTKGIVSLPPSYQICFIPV

[7] = Ratio of permeability from basolateral to apical side over apical to basolateral side in RRCK cells expressing MDR1; type: ADME, cell-based, Canis lupus familiaris; conditions: dog, mdckii-le
[8] = Dissociation constant, pKa of the compound; type: physicochemical
Hepatocyte = assay: Stability in human hepatocytes; type: ADME, cell-based
[9] = biological target: Potassium voltage-gated channel subfamily A member 5 (Homo sapiens) (UniProt P22460); assay: Inhibition of Kv1.5 (unknown origin)
Potassium voltage-gated channel subfamily A member 5 (Homo sapiens), sequence (P22460 whole entry): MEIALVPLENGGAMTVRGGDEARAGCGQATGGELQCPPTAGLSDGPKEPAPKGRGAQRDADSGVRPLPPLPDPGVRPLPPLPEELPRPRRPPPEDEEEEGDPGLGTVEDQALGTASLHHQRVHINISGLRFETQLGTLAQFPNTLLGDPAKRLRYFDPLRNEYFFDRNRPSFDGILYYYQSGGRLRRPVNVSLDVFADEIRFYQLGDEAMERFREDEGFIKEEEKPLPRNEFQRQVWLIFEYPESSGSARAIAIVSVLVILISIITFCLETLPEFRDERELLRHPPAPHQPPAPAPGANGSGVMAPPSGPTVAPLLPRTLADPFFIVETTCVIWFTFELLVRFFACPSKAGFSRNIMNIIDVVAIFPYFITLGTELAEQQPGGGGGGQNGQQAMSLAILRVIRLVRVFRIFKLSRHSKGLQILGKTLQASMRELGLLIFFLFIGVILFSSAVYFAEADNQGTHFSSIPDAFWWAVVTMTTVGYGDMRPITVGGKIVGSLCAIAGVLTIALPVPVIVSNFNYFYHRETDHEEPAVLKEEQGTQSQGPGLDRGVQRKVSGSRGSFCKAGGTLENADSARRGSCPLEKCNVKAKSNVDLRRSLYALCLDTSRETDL

[10] = biological target: Voltage-gated inwardly rectifying potassium channel KCNH2 (Homo sapiens, UniProt Q12809); assay: Inhibition of dofetilide binding to human ERG
Voltage-gated inwardly rectifying potassium channel KCNH2, sequence (Q12809 whole entry): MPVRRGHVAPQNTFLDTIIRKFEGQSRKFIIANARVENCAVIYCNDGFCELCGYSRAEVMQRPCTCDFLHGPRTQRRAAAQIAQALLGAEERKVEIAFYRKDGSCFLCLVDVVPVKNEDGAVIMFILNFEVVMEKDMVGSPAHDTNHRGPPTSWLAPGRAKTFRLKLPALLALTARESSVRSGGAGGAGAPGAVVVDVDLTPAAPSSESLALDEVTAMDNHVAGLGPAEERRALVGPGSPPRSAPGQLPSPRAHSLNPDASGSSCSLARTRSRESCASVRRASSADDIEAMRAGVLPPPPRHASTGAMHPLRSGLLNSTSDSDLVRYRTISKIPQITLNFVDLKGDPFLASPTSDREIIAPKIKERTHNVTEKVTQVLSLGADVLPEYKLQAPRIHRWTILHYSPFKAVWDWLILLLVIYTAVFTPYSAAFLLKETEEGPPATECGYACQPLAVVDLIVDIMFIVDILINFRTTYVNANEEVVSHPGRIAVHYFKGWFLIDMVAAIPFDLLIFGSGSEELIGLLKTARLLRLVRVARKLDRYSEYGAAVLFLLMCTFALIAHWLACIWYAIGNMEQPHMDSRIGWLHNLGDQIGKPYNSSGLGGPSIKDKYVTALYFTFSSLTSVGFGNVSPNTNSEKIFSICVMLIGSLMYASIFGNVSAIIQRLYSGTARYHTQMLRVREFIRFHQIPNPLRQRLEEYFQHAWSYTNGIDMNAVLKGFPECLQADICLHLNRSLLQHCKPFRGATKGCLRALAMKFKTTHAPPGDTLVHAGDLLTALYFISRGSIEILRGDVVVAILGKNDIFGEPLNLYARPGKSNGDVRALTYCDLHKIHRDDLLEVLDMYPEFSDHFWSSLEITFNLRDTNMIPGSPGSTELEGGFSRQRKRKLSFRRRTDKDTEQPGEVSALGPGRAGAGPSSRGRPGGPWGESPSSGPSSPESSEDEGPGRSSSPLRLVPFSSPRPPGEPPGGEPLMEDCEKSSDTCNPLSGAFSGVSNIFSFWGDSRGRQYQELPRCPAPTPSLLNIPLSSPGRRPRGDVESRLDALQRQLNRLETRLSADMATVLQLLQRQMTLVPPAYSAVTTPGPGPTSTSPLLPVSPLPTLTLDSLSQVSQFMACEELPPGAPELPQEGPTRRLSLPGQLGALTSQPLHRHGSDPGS

Cytochrome P450 1A2 = biological target: T3, Cytochrome P450 1A2 (Homo sapiens, UniProt P05177); assay: Inhibition of CYP1A2 (unknown origin); type: ADME
T3 sequence (P05177 whole entry): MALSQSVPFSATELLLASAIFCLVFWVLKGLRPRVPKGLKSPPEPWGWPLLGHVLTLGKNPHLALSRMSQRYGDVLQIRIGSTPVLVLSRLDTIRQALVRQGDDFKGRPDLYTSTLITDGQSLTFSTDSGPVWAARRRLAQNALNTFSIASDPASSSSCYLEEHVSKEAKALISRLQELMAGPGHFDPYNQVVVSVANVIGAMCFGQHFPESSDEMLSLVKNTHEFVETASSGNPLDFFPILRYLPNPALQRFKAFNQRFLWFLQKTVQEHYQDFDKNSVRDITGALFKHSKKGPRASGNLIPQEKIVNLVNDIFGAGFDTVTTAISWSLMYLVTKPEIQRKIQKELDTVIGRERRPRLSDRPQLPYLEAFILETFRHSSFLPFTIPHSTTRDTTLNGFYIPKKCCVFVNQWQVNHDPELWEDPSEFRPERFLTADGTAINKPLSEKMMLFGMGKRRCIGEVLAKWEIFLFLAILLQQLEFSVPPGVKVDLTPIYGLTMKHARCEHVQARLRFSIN

[11] = Clearance in rat; type: ADME, organism-based; conditions: in vivo
[12] = Fraction unbound in dog plasma; type: ADME, cell-free, Canis lupus familiaris
Cytochrome P450 2C19 = Cytochrome P450 2C19 (Homo sapiens, UniProt P33261); assay: Inhibition of CYP2C19 (unknown origin); type: ADME
[13] = Inhibition of GABA-A (unknown origin); parameters: species or system Homo sapiens
[14] = Permeability in Sprague-Dawley rat skin at 0.68 mg applied topically measured after 24 hrs; type: ADME, tissue-based, Zone of skin; conditions: in vivo, topical_or_ocular
Cytochrome P450 2D6 = Cytochrome P450 2D6 (Homo sapiens, UniProt P10635); assay: Inhibition of CYP2D6 (unknown origin); type: ADME
Salmonella typhimurium = assay: Genotoxicity in Salmonella typhimurium by Ames test; type: toxicity, organism-based; conditions: salmonella enterica subsp. enterica serovar typhimurium
[15] = Stability in dog plasma; type: ADME, cell-free, Canis lupus familiaris; conditions: read-out: Stability
[16] = biological target: T1, Transient receptor potential cation channel subfamily A member 1; assay: Antagonist activity at full length human TRPA1 at holding potential of 15 mV measured after 1 min by PatchXpress electrophysiology assay
[17] = Thermodynamic solubility of the compound; type: physicochemical; conditions: read-out: Therm_solubility
[18] = biological target: Transient receptor potential cation channel subfamily M member 8 (Homo sapiens, UniProt Q7Z2W7); assay: Inhibition of human TRPM8
[19] = Antagonist activity at pig TRPA1 by electrophysiology assay; parameters: species or system Sus scrofa
[20] = biological target: Sodium channel protein type 5 subunit alpha (Homo sapiens, UniProt Q14524); assay: Inhibition of Nav1.5 (unknown origin)
[21] = Antagonist activity at full length opossum TRPA1 at holding potential of 15 mV measured after 1 min by PatchXpress electrophysiology assay; parameters: species or system Monodelphis domestica
[22] = Antagonist activity at opossum TRPA1 hS5 chimera containing (867 to 983 residues) expressed in 293-T-REx cells at holding potential of 15 mV measured after 1 min by PatchXpress electrophysiology assay; type: cell-based; conditions: Monodelphis domestica, 293Trex
[23] = biological target: Transient receptor potential cation channel subfamily A member 1 (Rattus norvegicus, UniProt Q6RI86); assay: Antagonist activity at rat TRPA1 by electrophysiology assay
Transient receptor potential cation channel subfamily A member 1 (Rattus norvegicus, UniProt Q6RI86), sequence (Q6RI86 whole entry): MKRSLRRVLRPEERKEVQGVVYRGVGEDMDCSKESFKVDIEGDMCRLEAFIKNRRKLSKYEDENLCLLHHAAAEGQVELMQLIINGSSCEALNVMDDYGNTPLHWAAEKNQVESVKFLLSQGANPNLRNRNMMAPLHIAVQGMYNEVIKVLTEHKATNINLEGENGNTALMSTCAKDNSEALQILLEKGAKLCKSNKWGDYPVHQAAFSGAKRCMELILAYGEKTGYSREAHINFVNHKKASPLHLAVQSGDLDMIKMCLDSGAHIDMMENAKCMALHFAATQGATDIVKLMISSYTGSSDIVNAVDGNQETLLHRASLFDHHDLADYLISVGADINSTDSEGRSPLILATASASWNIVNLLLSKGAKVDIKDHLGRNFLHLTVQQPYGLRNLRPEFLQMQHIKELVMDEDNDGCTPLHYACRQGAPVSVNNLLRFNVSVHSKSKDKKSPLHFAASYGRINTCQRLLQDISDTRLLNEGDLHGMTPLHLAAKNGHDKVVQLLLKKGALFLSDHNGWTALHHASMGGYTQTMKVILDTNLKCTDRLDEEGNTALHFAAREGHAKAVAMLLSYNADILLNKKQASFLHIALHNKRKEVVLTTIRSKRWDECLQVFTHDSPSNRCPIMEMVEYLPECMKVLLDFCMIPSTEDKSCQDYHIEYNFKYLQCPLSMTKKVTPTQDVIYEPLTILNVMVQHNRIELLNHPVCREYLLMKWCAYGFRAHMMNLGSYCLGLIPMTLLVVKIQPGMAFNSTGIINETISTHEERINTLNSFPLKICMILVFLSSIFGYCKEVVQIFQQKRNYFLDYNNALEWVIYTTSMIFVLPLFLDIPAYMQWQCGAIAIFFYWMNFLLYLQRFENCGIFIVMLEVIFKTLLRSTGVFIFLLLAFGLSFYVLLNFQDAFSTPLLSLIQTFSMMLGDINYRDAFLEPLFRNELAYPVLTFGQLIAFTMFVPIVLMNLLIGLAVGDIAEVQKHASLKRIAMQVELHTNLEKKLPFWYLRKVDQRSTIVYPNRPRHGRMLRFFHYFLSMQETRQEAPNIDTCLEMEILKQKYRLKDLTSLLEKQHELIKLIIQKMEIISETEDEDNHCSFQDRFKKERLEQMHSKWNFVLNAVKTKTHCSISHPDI

Transient receptor potential cation channel subfamily V member 1, sequence (Q8NER1 whole entry): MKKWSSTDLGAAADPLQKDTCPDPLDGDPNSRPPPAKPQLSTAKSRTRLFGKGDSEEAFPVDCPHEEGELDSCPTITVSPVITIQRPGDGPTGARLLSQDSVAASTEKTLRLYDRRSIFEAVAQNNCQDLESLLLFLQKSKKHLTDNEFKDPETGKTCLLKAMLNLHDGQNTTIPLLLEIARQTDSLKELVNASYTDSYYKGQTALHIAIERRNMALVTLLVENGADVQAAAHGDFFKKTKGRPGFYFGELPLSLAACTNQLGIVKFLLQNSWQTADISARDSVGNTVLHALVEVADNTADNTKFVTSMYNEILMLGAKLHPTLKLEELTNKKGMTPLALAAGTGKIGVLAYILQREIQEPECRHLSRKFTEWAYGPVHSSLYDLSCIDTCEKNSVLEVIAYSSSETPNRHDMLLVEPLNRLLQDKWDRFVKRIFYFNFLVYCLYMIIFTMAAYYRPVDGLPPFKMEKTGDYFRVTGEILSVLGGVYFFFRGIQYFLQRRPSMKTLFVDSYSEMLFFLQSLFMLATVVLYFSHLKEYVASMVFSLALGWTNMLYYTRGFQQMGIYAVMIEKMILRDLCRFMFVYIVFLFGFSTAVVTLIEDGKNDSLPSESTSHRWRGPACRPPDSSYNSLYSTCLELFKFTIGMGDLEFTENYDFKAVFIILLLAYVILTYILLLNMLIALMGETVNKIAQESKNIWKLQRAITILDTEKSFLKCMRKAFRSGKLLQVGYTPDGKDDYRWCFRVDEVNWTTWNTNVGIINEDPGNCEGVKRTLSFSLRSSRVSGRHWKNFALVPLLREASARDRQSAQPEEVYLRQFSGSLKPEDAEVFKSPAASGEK

- IC50 [1]: > 3000 nM
- logD [2]: 4.7 to 5
- IC50 [3]: 730 nM
- concentration at 24 h [4]: 640000 ng/g
- IC50 [5]: 0.7 nM
- IC50 [6]: 1580 nM
- IC50 (Cytochrome P450 2C8): 11800 nM
- Ratio [7]: 11
- pKa [8]: 5.9
- Stability (Hepatocyte): 38 µL/min/mg
- INH [9]: > 3000 nM
- IC50 (Cytochrome P450 1A2): > 30000 nM
- clearance [11]: 42 mL/min/kg
- fraction unbound [12]: 0.0008
- IC50 (Cytochrome P450 2C19): 3150 nM
- IC50 [13]: 2300 nM
- permeability [14]: 0.1 ×10⁻⁵ cm/hr
- IC50 (Cytochrome P450 2D6): 450 nM
- half-life [15]: > 6 h
- IC50 [16]: 0.72 to 8 nM
- solubility thermodynamic [17]: 0.6 µg/mL (≈ 1.18 µM)
- IC50 [18]: > 3000 nM
- IC50 [19]: 65 nM
- IC50 [21]: ≥ 3000 nM
- IC50 [22]: 20 nM
- IC50 [23]: 3 nM
Compound: O=C(NC[C@@H](Cc1ccccc1)N1CCC(O)(C(F)(F)F)CC1)C1(c2ccc(Cl)cc2)CCCC1
- Ki [10]: 25700 nM
- Activity (Salmonella typhimurium): Non-Toxic
- INH [20]: > 3000 nM
